From US20220054543A1, “Enteric Use of Potassium Permanganate in Humans and Animals” (priority 2020, published 2022)

System: common human coronaviruses (229E, NL63, OC43, and HKU1)
Assay: enteric administration to humans, treating common human coronavirus infections
Type: in vivo

Measured: effective in treating infections resulting from the common human coronaviruses

Potassium permanganate
effective: adult humans, inhalation by cold-mist inhaler or nebulizer, 3.0 ml of 1:10,000 dilution (0.1 mg/mL solution) per day for three days | adult humans, inhalation by cold-mist inhaler or nebulizer, 3.0 ml of 1:50,000 dilution (0.02 mg/mL solution) per day for three days | adult humans, inhalation by cold-mist inhaler or nebulizer, 3.0 ml of 1:100,000 dilution (0.01 mg/mL solution) per day for three days | humans, intravenous, 10.0 cc per 45.4 kg of 1:10,000 dilution (0.1 mg/mL solution) per day for three days | humans, intravenous, 10.0 cc per 45.4 kg of 1:50,000 dilution (0.02 mg/mL solution) per day for three days | humans, intravenous, 10.0 cc per 45.4 kg of 1:100,000 dilution (0.01 mg/mL solution) per day for three days | humans, oral, 1 mg/kg per day for three days | humans, oral, 1 mg/kg per day on a daily basis (prophylactic) | humans, oral, 5 mg/kg per day for three days | humans, oral, 10 mg/kg per day for three days
